Source: the supplement of paper PMC8612539
Values after ≈ are worked out from the molar mass of the structure shown.

Tested on: Mannheimia haemolytica
Assay: minimum inhibitory concentration (MIC)
Description: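 Broth microdilution MIC (Sensititre BOPO7F bovine plate, CLSI methods) of 19 antimicrobials against field isolates of P. multocida, M. haemolytica, H. somni (deep nasopharyngeal swabs) and E. coli, Enterococcus spp. (rectal swabs) from weaned dairy heifers. Incubation 16-24 h at 35 C. MIC is the lowest concentration preventing visible growth. Values with <= or > lie at the tested range limits. Trimethoprim-sulfamethoxazole is given as the trimethoprim component of a 1:19 mixture.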

CNC(C)C1CCC(N)C(OC2C(N)CC(N)C(OC3OCC(C)(O)C(NC)C3O)C2O)O1 (stereo not given) [Gentamicin]
Settings	minimum inhibitory concentration [µg/mL]
isolate (source animal id): 8	2 (≈ 4.19 µM)
isolate (source animal id): 13	2 (≈ 4.19 µM)
isolate (source animal id): 18	2 (≈ 4.19 µM)
isolate (source animal id): 21	2 (≈ 4.19 µM)
isolate (source animal id): 25	4 (≈ 8.38 µM)
isolate (source animal id): 27	4 (≈ 8.38 µM)
isolate (source animal id): 28	2 (≈ 4.19 µM)
isolate (source animal id): 30	2 (≈ 4.19 µM)
isolate (source animal id): 31	4 (≈ 8.38 µM)
isolate (source animal id): 32	4 (≈ 8.38 µM)
isolate (source animal id): 34	4 (≈ 8.38 µM)
isolate (source animal id): 36	4 (≈ 8.38 µM)
isolate (source animal id): 37	4 (≈ 8.38 µM)
isolate (source animal id): 40	4 (≈ 8.38 µM)
isolate (source animal id): 41	2 (≈ 4.19 µM)
isolate (source animal id): 43	4 (≈ 8.38 µM)
isolate (source animal id): 46	4 (≈ 8.38 µM)
isolate (source animal id): 49	4 (≈ 8.38 µM)
isolate (source animal id): 50	4 (≈ 8.38 µM)
isolate (source animal id): 51	2 (≈ 4.19 µM)
isolate (source animal id): 52	2 (≈ 4.19 µM)
isolate (source animal id): 53	4 (≈ 8.38 µM)
isolate (source animal id): 55	2 (≈ 4.19 µM)
isolate (source animal id): 56	2 (≈ 4.19 µM)
isolate (source animal id): 57	16 (≈ 33.5 µM)
isolate (source animal id): 100	4 (≈ 8.38 µM)
isolate (source animal id): 103	4 (≈ 8.38 µM)
isolate (source animal id): 107	4 (≈ 8.38 µM)
isolate (source animal id): 108	4 (≈ 8.38 µM)
isolate (source animal id): 112	2 (≈ 4.19 µM)
isolate (source animal id): 113	16 (≈ 33.5 µM)
isolate (source animal id): 121	4 (≈ 8.38 µM)
isolate (source animal id): 122	4 (≈ 8.38 µM)
isolate (source animal id): 123	16 (≈ 33.5 µM)
isolate (source animal id): 126	4 (≈ 8.38 µM)
isolate (source animal id): 133	2 (≈ 4.19 µM)
isolate (source animal id): 135	> 16
isolate (source animal id): 138	4 (≈ 8.38 µM)
isolate (source animal id): 141	16 (≈ 33.5 µM)
isolate (source animal id): 142	4 (≈ 8.38 µM)
isolate (source animal id): 145	4 (≈ 8.38 µM)
isolate (source animal id): 149	2 (≈ 4.19 µM)
isolate (source animal id): 151	2 (≈ 4.19 µM)
isolate (source animal id): 152	2 (≈ 4.19 µM)
isolate (source animal id): 154	2 (≈ 4.19 µM)
isolate (source animal id): 159	4 (≈ 8.38 µM)
isolate (source animal id): 162	4 (≈ 8.38 µM)
isolate (source animal id): 170	4 (≈ 8.38 µM)
isolate (source animal id): 171	2 (≈ 4.19 µM)
isolate (source animal id): 172	4 (≈ 8.38 µM)
isolate (source animal id): 173	4 (≈ 8.38 µM)
isolate (source animal id): 179	4 (≈ 8.38 µM)
isolate (source animal id): 180	2 (≈ 4.19 µM)
isolate (source animal id): 183	2 (≈ 4.19 µM)
isolate (source animal id): 186	4 (≈ 8.38 µM)
isolate (source animal id): 187	2 (≈ 4.19 µM)
isolate (source animal id): 188	2 (≈ 4.19 µM)
isolate (source animal id): 190	2 (≈ 4.19 µM)
isolate (source animal id): 191	4 (≈ 8.38 µM)
isolate (source animal id): 192	2 (≈ 4.19 µM)
isolate (source animal id): 201	2 (≈ 4.19 µM)
isolate (source animal id): 202	4 (≈ 8.38 µM)
isolate (source animal id): 209	4 (≈ 8.38 µM)
isolate (source animal id): 211	2 (≈ 4.19 µM)
isolate (source animal id): 220	4 (≈ 8.38 µM)
isolate (source animal id): 221	4 (≈ 8.38 µM)
isolate (source animal id): 223	4 (≈ 8.38 µM)
isolate (source animal id): 233	4 (≈ 8.38 µM)
isolate (source animal id): 237	4 (≈ 8.38 µM)
isolate (source animal id): 241	4 (≈ 8.38 µM)
isolate (source animal id): 252	4 (≈ 8.38 µM)
isolate (source animal id): 253	4 (≈ 8.38 µM)
isolate (source animal id): 259	2 (≈ 4.19 µM)
isolate (source animal id): 260	4 (≈ 8.38 µM)
isolate (source animal id): 262	2 (≈ 4.19 µM)
isolate (source animal id): 282	2 (≈ 4.19 µM)
isolate (source animal id): 287	4 (≈ 8.38 µM)
isolate (source animal id): 288	2 (≈ 4.19 µM)
isolate (source animal id): 291	2 (≈ 4.19 µM)
isolate (source animal id): 293	4 (≈ 8.38 µM)
isolate (source animal id): 298	2 (≈ 4.19 µM)
isolate (source animal id): 299	2 (≈ 4.19 µM)
isolate (source animal id): 300	2 (≈ 4.19 µM)
isolate (source animal id): 302	2 (≈ 4.19 µM)
isolate (source animal id): 304	2 (≈ 4.19 µM)
isolate (source animal id): 306	2 (≈ 4.19 µM)
isolate (source animal id): 308	2 (≈ 4.19 µM)
isolate (source animal id): 309	2 (≈ 4.19 µM)
isolate (source animal id): 313	4 (≈ 8.38 µM)
isolate (source animal id): 318	2 (≈ 4.19 µM)
isolate (source animal id): 320	2 (≈ 4.19 µM)
isolate (source animal id): 321	4 (≈ 8.38 µM)
isolate (source animal id): 323	2 (≈ 4.19 µM)
isolate (source animal id): 324	4 (≈ 8.38 µM)
isolate (source animal id): 326	4 (≈ 8.38 µM)
isolate (source animal id): 328	4 (≈ 8.38 µM)
isolate (source animal id): 329	4 (≈ 8.38 µM)
isolate (source animal id): 333	4 (≈ 8.38 µM)
isolate (source animal id): 335	4 (≈ 8.38 µM)
isolate (source animal id): 338	4 (≈ 8.38 µM)

C=C[C@]1(C)C[C@@H](OC(=O)CSCCN(CC)CC)[C@]2(C)[C@H](C)CC[C@]3(CCC(=O)[C@H]32)[C@@H](C)[C@@H]1O [Tiamulin]
Settings	minimum inhibitory concentration [µg/mL]
isolate (source animal id): 8	8 (≈ 16.2 µM)
isolate (source animal id): 13	8 (≈ 16.2 µM)
isolate (source animal id): 18	8 (≈ 16.2 µM)
isolate (source animal id): 21	8 (≈ 16.2 µM)
isolate (source animal id): 25	32 (≈ 64.8 µM)
isolate (source animal id): 27	16 (≈ 32.4 µM)
isolate (source animal id): 28	32 (≈ 64.8 µM)
isolate (source animal id): 30	8 (≈ 16.2 µM)
isolate (source animal id): 31	32 (≈ 64.8 µM)
isolate (source animal id): 32	8 (≈ 16.2 µM)
isolate (source animal id): 34	8 (≈ 16.2 µM)
isolate (source animal id): 36	32 (≈ 64.8 µM)
isolate (source animal id): 37	16 (≈ 32.4 µM)
isolate (source animal id): 40	8 (≈ 16.2 µM)
isolate (source animal id): 41	8 (≈ 16.2 µM)
isolate (source animal id): 43	8 (≈ 16.2 µM)
isolate (source animal id): 46	32 (≈ 64.8 µM)
isolate (source animal id): 49	16 (≈ 32.4 µM)
isolate (source animal id): 50	32 (≈ 64.8 µM)
isolate (source animal id): 51	8 (≈ 16.2 µM)
isolate (source animal id): 52	8 (≈ 16.2 µM)
isolate (source animal id): 53	8 (≈ 16.2 µM)
isolate (source animal id): 55	8 (≈ 16.2 µM)
isolate (source animal id): 56	8 (≈ 16.2 µM)
isolate (source animal id): 57	8 (≈ 16.2 µM)
isolate (source animal id): 100	16 (≈ 32.4 µM)
isolate (source animal id): 103	32 (≈ 64.8 µM)
isolate (source animal id): 107	16 (≈ 32.4 µM)
isolate (source animal id): 108	16 (≈ 32.4 µM)
isolate (source animal id): 112	16 (≈ 32.4 µM)
isolate (source animal id): 113	8 (≈ 16.2 µM)
isolate (source animal id): 121	32 (≈ 64.8 µM)
isolate (source animal id): 122	16 (≈ 32.4 µM)
isolate (source animal id): 123	8 (≈ 16.2 µM)
isolate (source animal id): 126	32 (≈ 64.8 µM)
isolate (source animal id): 133	8 (≈ 16.2 µM)
isolate (source animal id): 135	8 (≈ 16.2 µM)
isolate (source animal id): 138	32 (≈ 64.8 µM)
isolate (source animal id): 141	8 (≈ 16.2 µM)
isolate (source animal id): 142	32 (≈ 64.8 µM)
isolate (source animal id): 145	32 (≈ 64.8 µM)
isolate (source animal id): 149	8 (≈ 16.2 µM)
isolate (source animal id): 151	16 (≈ 32.4 µM)
isolate (source animal id): 152	32 (≈ 64.8 µM)
isolate (source animal id): 154	16 (≈ 32.4 µM)
isolate (source animal id): 159	32 (≈ 64.8 µM)
isolate (source animal id): 162	16 (≈ 32.4 µM)
isolate (source animal id): 170	> 32
isolate (source animal id): 171	16 (≈ 32.4 µM)
isolate (source animal id): 172	32 (≈ 64.8 µM)
isolate (source animal id): 173	> 32
isolate (source animal id): 179	16 (≈ 32.4 µM)
isolate (source animal id): 180	16 (≈ 32.4 µM)
isolate (source animal id): 183	8 (≈ 16.2 µM)
isolate (source animal id): 186	8 (≈ 16.2 µM)
isolate (source animal id): 187	16 (≈ 32.4 µM)
isolate (source animal id): 188	8 (≈ 16.2 µM)
isolate (source animal id): 190	16 (≈ 32.4 µM)
isolate (source animal id): 191	> 32
isolate (source animal id): 192	16 (≈ 32.4 µM)
isolate (source animal id): 201	> 32
isolate (source animal id): 202	> 32
isolate (source animal id): 209	> 32
isolate (source animal id): 211	32 (≈ 64.8 µM)
isolate (source animal id): 220	32 (≈ 64.8 µM)
isolate (source animal id): 221	> 32
isolate (source animal id): 223	> 32
isolate (source animal id): 233	32 (≈ 64.8 µM)
isolate (source animal id): 237	32 (≈ 64.8 µM)
isolate (source animal id): 241	> 32
isolate (source animal id): 252	32 (≈ 64.8 µM)
isolate (source animal id): 253	16 (≈ 32.4 µM)
isolate (source animal id): 259	16 (≈ 32.4 µM)
isolate (source animal id): 260	32 (≈ 64.8 µM)
isolate (source animal id): 262	32 (≈ 64.8 µM)
isolate (source animal id): 282	32 (≈ 64.8 µM)
isolate (source animal id): 287	32 (≈ 64.8 µM)
isolate (source animal id): 288	8 (≈ 16.2 µM)
isolate (source animal id): 291	16 (≈ 32.4 µM)
isolate (source animal id): 293	32 (≈ 64.8 µM)
isolate (source animal id): 298	16 (≈ 32.4 µM)
isolate (source animal id): 299	16 (≈ 32.4 µM)
isolate (source animal id): 300	8 (≈ 16.2 µM)
isolate (source animal id): 302	16 (≈ 32.4 µM)
isolate (source animal id): 304	16 (≈ 32.4 µM)
isolate (source animal id): 306	8 (≈ 16.2 µM)
isolate (source animal id): 308	8 (≈ 16.2 µM)
isolate (source animal id): 309	8 (≈ 16.2 µM)
isolate (source animal id): 313	32 (≈ 64.8 µM)
isolate (source animal id): 318	16 (≈ 32.4 µM)
isolate (source animal id): 320	16 (≈ 32.4 µM)
isolate (source animal id): 321	32 (≈ 64.8 µM)
isolate (source animal id): 323	16 (≈ 32.4 µM)
isolate (source animal id): 324	32 (≈ 64.8 µM)
isolate (source animal id): 326	> 32
isolate (source animal id): 328	32 (≈ 64.8 µM)
isolate (source animal id): 329	32 (≈ 64.8 µM)
isolate (source animal id): 333	32 (≈ 64.8 µM)
isolate (source animal id): 335	16 (≈ 32.4 µM)
isolate (source animal id): 338	32 (≈ 64.8 µM)
